Like-named read-outs stand apart in the source and are kept apart here. Where a SMILES comes first, the peptide text is derived from it. The star is where a group is joined. X1 = C[C@@H]1[C@H](O)[C@@H](C)/C=C/C=C/C=C/C=C/C=C/C=C/C=C/[C@H](O[C@@H]2O[C@H](C)[C@@H](O)[C@H](NC(=O)CCCCCN3C(=O)CC(*)C3=O)[C@@H]2O)C[C@@H]2O[C@](O)(C[C@@H](O)C[C@@H](O)[C@H](O)CC[C@@H](O)C[C@@H](O)CC(=O)O[C@H]1C)C[C@H](O)[C@H]2C(=O)O; X2 = O=C(CCCCCN1C(=O)CC(*)C1=O)OCCOC(=O)CCCc1ccc(N(CCCl)CCCl)cc1
Tests used:
[1] = tested on: NCI-H1299: human non small cell lung carcinoma; assay: cells; format: cell-based; conditions: Homo sapiens, NCI-H1299; H1299 NSCLC; 1 h incubation + 72 h post-incubation
Method: NCI-H1299: human non small cell lung carcinoma (NSCLC) (origin: ATCC #CRL-5803)
(§1) Viability assays were performed. Briefly, cells are seeded in 96-well plates and incubated with increasing concentrations of drugs for 1 hour then cells are rinsed and incubated with fresh medium without drugs for 72 hours. A WST-1 test (from Roche) was performed and IC50 values (drug concentration that inhibits 50% of cell viability) were estimated from sigmoidal regressions.
(§2) We tested the inhibition of in vitro cell proliferation of human carcinoma cells, and we calculated IC50 values=drug concentration that inhibits 50% of cell viability.

[2] = Solubility in water / aqueous solutions
[3] = tested on: OVCAR-3: human ovary carcinoma; assay: cells; format: cell-based; conditions: Homo sapiens; OVCAR-3 ovary carcinoma; 1 h incubation + 72 h post-incubation
Method: OVCAR-3: human ovary carcinoma (origin: ATCC #HTB-161)
as §1, §2

[4] = tested on: HCT116: human colon carcinoma; assay: cells; format: cell-based; conditions: for more efficient than Chl: HCT116 colon carcinoma; for IC50: read-out: IC50 values
Method: HCT116: human colon carcinoma (origin: ATCC #CCL-247)
(§3) Viability assays were performed. Briefly, cells are seeded in 96-well plates and incubated with increasing concentrations of drugs (i) for 1 hour then cells are rinsed and incubated with fresh medium without drugs for 48 hours, or (ii) for 48 hours. A WST-1 test (from Roche) was performed and IC50 values (drug concentration that inhibits 50% of cell viability) were estimated from sigmoidal regressions.
(§4) DPV15-E-Chl conjugate was compared to non-conjugated Chl and 5FUra for the inhibition of in vitro cell proliferation of human carcinoma and leukemia cells. We calculated IC50 values=drug concentration that inhibits 50% of cell viability.

[5] = tested on: HT29: human colon carcinoma; assay: cells; format: cell-based; conditions: for IC50: read-out: IC50 values
Method: HT29: human colon carcinoma, low P-gp expression (origin: ATCC #HTB-38)
as §3, §4

[6] = Stability in H2O+0.1% TFA overnight at room temperature; format: physicochemical; conditions: protected from light, Chl 0.1 mg/ml, DPV15-E-Chl 0.5 mg/ml in H2O+0.1% TFA
Method: After overnight incubation at room temperature and protected from light, both Chl (0.1 mg/ml in H2O+0.1% TFA) and DPV15-E-Chl (0.5 mg/ml in H2O+0.1% TFA) are degraded (50% degradation).

[7] = tested on: K562: human chronic myelogenous leukemia; assay: Viability assay (WST-1); format: cell-based
Method: K562: human chronic myelogenous leukemia (CML) (origin: ATCC #CCL-243).
as §3, §4

[8] = Single dose toxicity, intravenous injection; format: in vivo, mice
Method: The single dose toxicity of the DPV15-AmB conjugate was assessed by mortality and/or body weight loss after a single dose intravenous injection. Mice were treated with DPV15-AmB 2.57, 3.68, 5.52, 7.36, 9.2, 18.4 and 36.8 mg/kg with vehicle (NaCl/H2O 9/1 v/v). These different doses correspond to 0.7, 1, 1.5, 2, 2.5, 5 and 10 mg/kg of AMB respectively. The dose of 1 mg/kg corresponds to the MTD of AmB exposed in the literature (Tabosa Do Egito et al., In-vitro and In-vivo evaluation of a new amphothericin B emulsion-based delivery system. J Antimicrob Vhemother. 1996 September; 38(3):485-97).

[9] = tested on: Candida albicans (ATCC 90028); assay: Lethal murine candidiasis model; format: in vivo, mice; conditions: single i.v. 3 hours after inoculation
Method: Test substances (DPV15-AmB and AmB (Fungizone)) and vehicule control were administrated i.v. with doses ranging from 0.25 mg/kg to 2.5 mg/kg AmB equivalent to test animals 3 hours after the fungal inoculation. Mortality was recorded once daily for 8 days.

[10] = tested on: HeLa cells; assay: Poly-L-Lys inhibition of the internalization of DPV-PO conjugates; format: cell-based; conditions: inhibition of DPV-PO internalization (25 μg/ml, 4 h) in HeLa cells
Method: In order to verify this hypothesis, we tested the inhibition of DPV-PO internalization in HeLa cells in the presence of Poly-L-Lysine in the incubation medium: positively charged poly-L-Lys should bind to the negative charges of the cell surface, and prevent the binding of DPVs.
HeLa cells cultivated on glass labtek slides for 24 hours were pre-incubated with the indicated concentrations of poly-L-Lys for 1 hour at 37° C. Cells were then incubated for 4 hours in the presence of DPV-PO conjugates at 25 μg/ml in cell culture medium containing the same quantity of poly-L-Lys. Internalized PO was quantified after extensive treatment with trypsin to eliminate surface bound material, and subsequent cell lysis. Results are given in picogram PO per 1000 cells.

[11] = tested on: HCT116 human colorectal carcinoma; assay: In vivo anti-tumor activity, second experiment (DPV15b-doxorubicin); set-up: species or system nude mice; conditions: Q2D3×3W
Method: (§5) Mice: Athymic (nu/nu) nude mice, female, NMRI-nu (nu/nu)-Nude Tumor model: HCT116 human colorectal carcinoma (ATCC Number: CCl-247) Experiment has been performed on tumor-bearing mice. The HCT116 tumors have been established by intradermal injection of 100 μl of the cell suspension (10^7 cells/0.1 mL) on the right flank of the mouse. […] After complete dissolution a solution of 0.9% NaCl for injection (Cooper) 0.9% was added.

[12] = tested on: HCT116 human colorectal carcinoma; assay: In vivo anti-tumor activity of DPV7b-doxorubicin conjugate; set-up: species or system Nude mice; conditions: Table 15, Q2D3×3W
Method: Nude mice are injected with 10^7 HCT116 cells (HCT116 human colorectal carcinoma cell line) intradermically in the right flank. Treatments were performed on established solid tumors (tumors size is about 80 to 90 mm^3) at Day 3. Mice were randomized in different groups (equivalent tumors size), 6 mice by group.

[13] = tested on: HCT116 human colorectal carcinoma; assay: In vivo anti-tumor activity, first experiment (DPV15-doxorubicin); set-up: species or system nude mice; conditions: Table 13, Q2D3×3W
Method: as §5

[14] = HCT116 colon, 1 h incubation + 48 h
[15] = HT29 colon carcinoma, short exposure
[16] = HT29 colon, 1 h incubation + 48 h

## CC(=O)O[C@H]1C(=O)[C@@]2(C)[C@H]([C@H](OC(=O)c3ccccc3)[C@]3(O)C[C@H](OC(=O)[C@H](O)[C@@H](NC(=O)c4ccccc4)c4ccccc4)C(C)=C1C3(C)C)[C@]1(OC(C)=O)CO[C@@H]1C[C@@H]2O [Paclitaxel (Hauser), Paclitaxel]
[1]
  IC50: 0.23 ± 0.17 µM
[2]
  Solubility in water / aqueous solutions: not soluble
[3]
  IC50: 0.04 ± 0.02 µM

## CC(C)C[C@H](NC(=O)[C@H](CCCNC(=N)N)NC(=O)[C@H](CO)NC(=O)[C@H](CCC(N)=O)NC(=O)[C@H](CCCNC(=N)N)NC(=O)[C@H](CCC(=O)O)NC(=O)[C@H](CCCNC(=N)N)NC(=O)[C@H](CCCNC(=N)N)NC(=O)[C@@H](N)CC(C)C)C(=O)N[C@@H](CCCNC(=N)N)C(=O)N[C@@H](CCCNC(=N)N)C(=O)N[C@@H](CCC(=O)O)C(=O)N[C@@H](CCCNC(=N)N)C(=O)N[C@@H](CCC(N)=O)C(=O)N[C@@H](CO)C(=O)N[C@@H](CCCNC(=N)N)C(=O)N[C@@H](CSC1CC(=O)N(CCCCCC(=O)OCCOC(=O)CCCc2ccc(N(CCCl)CCCl)cc2)C1=O)C(=O)O (stereo partly shown) [DPV15-E-Chl] (H-LRRERQSRLRRERQSRC(X2)-OH)
[4]; long exposure
  more efficient than Chl: 8 fold
[4]; short exposure
  more efficient than Chl: 12 fold
[4]; [14]
  IC50: 43 ± 15 µM
[4]; HCT116 colon, 48 h incubation
  IC50: 25 ± 7 µM
[5]; [15]
  more efficient than 5FUra: ≥ 17 fold
  more efficient than Chl: 11 fold
[5]; [16]
  IC50: 60 µM
[5]; HT29 colon, 48 h incubation
  IC50: 325 µM
[2]
  solubility: ≥ 10 mg/mL
[6]
  degradation after overnight incubation: 50%
[7]; 1 h incubation + 48 h
  IC50: 30 µM
[7]; 48 h incubation
  IC50: 30 µM
[7]; long exposure
  more efficient than Chl: 8 fold
[7]; short exposure
  more efficient than Chl: ≥ 16 fold

## CC(C)C[C@H](NC(=O)[C@H](CCCNC(=N)N)NC(=O)[C@H](CO)NC(=O)[C@H](CCC(N)=O)NC(=O)[C@H](CCCNC(=N)N)NC(=O)[C@H](CCC(=O)O)NC(=O)[C@H](CCCNC(=N)N)NC(=O)[C@H](CCCNC(=N)N)NC(=O)[C@@H](N)CC(C)C)C(=O)N[C@@H](CCCNC(=N)N)C(=O)N[C@@H](CCCNC(=N)N)C(=O)N[C@@H](CCC(=O)O)C(=O)N[C@@H](CCCNC(=N)N)C(=O)N[C@@H](CCC(N)=O)C(=O)N[C@@H](CO)C(=O)N[C@@H](CCCNC(=N)N)C(=O)N[C@@H](CSC1CC(=O)N(CCCCCC(=O)N[C@@H]2[C@H](O)[C@H](O[C@H]3/C=C/C=C/C=C/C=C/C=C/C=C/C=C/[C@H](C)[C@@H](O)[C@@H](C)[C@H](C)OC(=O)C[C@H](O)C[C@H](O)CC[C@@H](O)[C@H](O)C[C@H](O)C[C@]4(O)C[C@H](O)[C@@H](C(=O)O)[C@H](C3)O4)O[C@H](C)[C@H]2O)C1=O)C(=O)O (stereo partly shown) [DPV15-AmB] (H-LRRERQSRLRRERQSRC(X1)-OH)
[8]; 18.4 mg/kg, 24 hours after the injection
  mortality: 1 mouse was found dead
[8]; 18.4 mg/kg, two surviving mice, 24 hours after the injection
  loss of initial body weight: about 12%
[8]; 36.8 mg/kg (10 mg/kg of AMB), single i.v.
  Acute lethal toxicity: observed
[8]; 2.57, 3.68, 5.52, 7.36 and 9.2 mg/kg, single i.v.
  effect on the body weight at Day 28: no effect
[8]; mouse, in vivo, iv, single i.v., conjugate dose, read-out: maximal tolerated dose
  MTD at 28 day: 9.2 to 18.4 mg/kg
[9]; 0.5 mg/kg AmB equivalent
  survival on day 8: 50%
[9]; 1 mg/kg AmB equivalent
  survival on day 8: 50%

## Poly-L-Lysine
[10]
  IC50 (concentration at which 50% of the maximum internalization is achieved): around 25 μg/ml

## O=C(O)CCCc1ccc(N(CCCl)CCCl)cc1 [Chl, Chlorambucil]
[4]; Homo sapiens, HCT-116, 48 h
  IC50: 200 ± 70 µM
[5]; Homo sapiens, HT-29, 48 h
  IC50: 250 ± 70 µM
[2]
  Solubility in water / aqueous solutions: not soluble
[6]
  degradation after overnight incubation: 50%
[7]; Homo sapiens, 1 h incubation + 48 h
  IC50: > 500 µM
[7]; Homo sapiens, 48 h incubation
  IC50: 250 ± 70 µM

## COc1cccc2c1C(=O)c1c(O)c3c(c(O)c1C2=O)C[C@@](O)(C(=O)CO)C[C@@H]3O[C@H]1C[C@H](N)[C@H](O)[C@H](C)O1 [Doxorubicin]
[11]; 7 μmol/kg i.v.
  mice body weight loss: > 20%
[11]; Table 14, 5 μmol/kg i.v.
  Tumor growth delay: 27.86 days
[11]; Table 14, 6 μmol/kg i.v.
  Tumor growth delay: 29.98 days
[11]; Table 14, 7 μmol/kg i.v.
  Tumor doubling time: 13.38 days
  Tumor growth delay: 35.16 days
[1]
  IC50: 0.62 ± 0.32 µM
[12]; 3.5 μmol/kg i.v.
  Tumor doubling time: 10.2 days
  Tumor growth delay: 21.20 days
[12]; 5 μmol/kg i.v.
  Tumor growth delay: 26.40 days
[12]; 6.5 μmol/kg i.v.
  Tumor doubling time: 22.9 days
  Tumor growth delay: 35.29 days
[13]; 3.5 μmol/kg i.v.
  Tumor doubling time: 10.20 days
  Tumor growth delay: 21.20 days
[13]; 5 μmol/kg i.v.
  Tumor growth delay: 26.40 days
[13]; 6.5 μmol/kg i.v.
  Tumor doubling time: 22.90 days
  Tumor growth delay: 35.29 days
[3]
  IC50: 7.3 ± 4.2 µM

## O=c1[nH]cc(F)c(=O)[nH]1 [5FUra]
[4]; [14]
  IC50: 113 ± 40 µM
[4]; HCT116 colon, 48 h incubation
  IC50: 8.5 ± 7.9 µM
[5]; [16]
  IC50: > 1000 µM
[5]; HT29 colon, 48 h incubation
  IC50: 725 ± 388 µM

Source: US7544664B2, “Sequences facilitating penetration of a substance of interest” (priority 2003, dated 2009)
